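Dose response: 5 concentrations. Exposure: 48 h. Format: 96-well plates. Endpoint: linear interpolation; highest concentration if not reached. GI50 = concentration required for 50% inhibition of growth. TGI: concentration producing complete growth inhibition.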
How the values were obtained:
Assay in all cases: NCI tumour cell line growth inhibition, 48 h
MDA-MB-435 = tested on: MDA-MB-435
SK-OV-3 ovarian = tested on: SK-OV-3 ovarian
RXF 393 renal = tested on: RXF 393 renal
CCRF-CEM leukemia = tested on: CCRF-CEM leukemia
HCC-2998 colon = tested on: HCC-2998 colon
HL-60(TB) leukemia = tested on: HL-60(TB) leukemia
TK-10 renal = tested on: TK-10 renal
U251 CNS = tested on: U251 CNS
HCT-15 colon = tested on: HCT-15 colon
OVCAR-8 ovarian = tested on: OVCAR-8 ovarian

**Q.** Which results are given for COc1cc2[nH]c3c(c2cc1OC)CCN[C@@]31CC[C@@]2(CC3c4c(cc(OC)c(O)c42)CCN3C)C[C@@H]1OC (stereo not given in full)?
**A.** TGI (MDA-MB-435): 41.4 µM; TGI (SK-OV-3 ovarian): > 100 µM; TGI (RXF 393 renal): 77.9 µM; TGI (CCRF-CEM leukemia): 94.5 µM; TGI (HCC-2998 colon): > 83.4 µM; TGI (HL-60(TB) leukemia): 30.7 µM; TGI (TK-10 renal): 84.5 µM; TGI (U251 CNS): > 91.4 µM; TGI (HCT-15 colon): > 100 µM; TGI (OVCAR-8 ovarian): > 100 µM

**Q.** How did the GI50 (MDA-MB-435) turn out when Cc1[nH]nc(C(F)(F)F)c1Cc1sc2c(c1C(=O)N1C[C@](C)(O)CO1)c(=O)n(C)c(=O)n2C(C)C was run?
**A.** > 100 µM

**Q.** And the TGI (MDA-MB-435)?
**A.** > 100 µM

**Q.** What about the GI50 (SK-OV-3 ovarian) of the same compound?
**A.** > 100 µM

**Q.** And the TGI (SK-OV-3 ovarian)?
**A.** > 100 µM

**Q.** And the GI50 (RXF 393 renal)?
**A.** > 100 µM

**Q.** And the TGI (RXF 393 renal)?
**A.** > 100 µM

**Q.** What about the GI50 (CCRF-CEM leukemia) of the same compound?
**A.** > 100 µM

**Q.** What about the TGI (CCRF-CEM leukemia) of the same compound?
**A.** > 100 µM

**Q.** And the GI50 (HCC-2998 colon)?
**A.** > 100 µM

**Q.** And the TGI (HCC-2998 colon)?
**A.** > 100 µM

**Q.** What about the GI50 (HL-60(TB) leukemia) of the same compound?
**A.** > 100 µM

**Q.** What about the TGI (HL-60(TB) leukemia) of the same compound?
**A.** > 100 µM

**Q.** What about the GI50 (TK-10 renal) of the same compound?
**A.** > 100 µM

**Q.** And the TGI (TK-10 renal)?
**A.** > 100 µM

**Q.** What about the GI50 (U251 CNS) of the same compound?
**A.** > 100 µM

**Q.** What about the TGI (U251 CNS) of the same compound?
**A.** > 100 µM

**Q.** What about the GI50 (HCT-15 colon) of the same compound?
**A.** > 100 µM

**Q.** And the TGI (HCT-15 colon)?
**A.** > 100 µM

**Q.** And the GI50 (OVCAR-8 ovarian)?
**A.** > 100 µM

**Q.** What about the TGI (OVCAR-8 ovarian) of the same compound?
**A.** > 100 µM

**Q.** With CCN1CCN(c2ccc(NC(=O)Nc3nc4ccc(-c5ccccc5OC)cc4s3)cc2)CC1 as the compound, how does the GI50 (MDA-MB-435) read?
**A.** 1.71 µM

**Q.** And the TGI (MDA-MB-435)?
**A.** 3.14 µM

**Q.** And the GI50 (SK-OV-3 ovarian)?
**A.** 1.79 µM

**Q.** What about the TGI (SK-OV-3 ovarian) of the same compound?
**A.** 3.55 µM

**Q.** And the GI50 (RXF 393 renal)?
**A.** 1.7 µM

**Q.** And the TGI (RXF 393 renal)?
**A.** 3.3 µM

**Q.** And the GI50 (CCRF-CEM leukemia)?
**A.** 1.81 µM

**Q.** What about the TGI (CCRF-CEM leukemia) of the same compound?
**A.** 4.09 µM

**Q.** And the GI50 (HCC-2998 colon)?
**A.** 1.83 µM

**Q.** And the TGI (HCC-2998 colon)?
**A.** 3.39 µM

**Q.** And the GI50 (HL-60(TB) leukemia)?
**A.** 1.73 µM

**Q.** And the TGI (HL-60(TB) leukemia)?
**A.** 3.58 µM

**Q.** And the GI50 (TK-10 renal)?
**A.** 2.12 µM

**Q.** What about the TGI (TK-10 renal) of the same compound?
**A.** 3.6 µM

**Q.** And the GI50 (U251 CNS)?
**A.** 1.57 µM

**Q.** What about the TGI (U251 CNS) of the same compound?
**A.** 2.94 µM

**Q.** And the GI50 (HCT-15 colon)?
**A.** 1.2 µM

**Q.** What about the TGI (HCT-15 colon) of the same compound?
**A.** 2.47 µM

**Q.** What about the GI50 (OVCAR-8 ovarian) of the same compound?
**A.** 1.99 µM

**Q.** What about the TGI (OVCAR-8 ovarian) of the same compound?
**A.** 3.66 µM

**Q.** Which GI50 (MDA-MB-435) does the source give for Cn1nc(C(F)(F)F)cc1-c1cc(Cl)c(OCc2ccc(Cl)cc2)c(-c2ccc(Cl)c(C(F)(F)F)c2)c1O here?
**A.** 1.42 µM

**Q.** What about the TGI (MDA-MB-435) of the same compound?
**A.** 4.18 µM

**Q.** What about the GI50 (SK-OV-3 ovarian) of the same compound?
**A.** 1.43 µM

**Q.** What about the TGI (SK-OV-3 ovarian) of the same compound?
**A.** 4.31 µM

**Q.** And the GI50 (RXF 393 renal)?
**A.** 1.01 µM

**Q.** And the TGI (RXF 393 renal)?
**A.** 3.11 µM

**Q.** What about the GI50 (CCRF-CEM leukemia) of the same compound?
**A.** 0.821 µM

**Q.** And the TGI (CCRF-CEM leukemia)?
**A.** 19.6 µM

**Q.** What about the GI50 (HCC-2998 colon) of the same compound?
**A.** 1.4 µM

**Q.** And the TGI (HCC-2998 colon)?
**A.** 5.45 µM

**Q.** What about the GI50 (HL-60(TB) leukemia) of the same compound?
**A.** 1.12 µM

**Q.** And the TGI (HL-60(TB) leukemia)?
**A.** 2.49 µM

**Q.** And the GI50 (TK-10 renal)?
**A.** 1.66 µM

**Q.** What about the TGI (TK-10 renal) of the same compound?
**A.** 5.56 µM

**Q.** And the GI50 (U251 CNS)?
**A.** 1.05 µM

**Q.** And the TGI (U251 CNS)?
**A.** 5.13 µM

**Q.** What about the GI50 (HCT-15 colon) of the same compound?
**A.** 0.764 µM

**Q.** And the TGI (HCT-15 colon)?
**A.** 4.4 µM

**Q.** And the GI50 (OVCAR-8 ovarian)?
**A.** 1.2 µM

**Q.** What about the TGI (OVCAR-8 ovarian) of the same compound?
**A.** 5.41 µM

**Q.** Which GI50 (MDA-MB-435) does the source give for CCOC(=O)C1=C(Nc2ccc(OC)cc2)C(N)=NC1=N here?
**A.** 0.336 µM

**Q.** What about the TGI (MDA-MB-435) of the same compound?
**A.** 1.5 µM

**Q.** What about the GI50 (SK-OV-3 ovarian) of the same compound?
**A.** 2.99 µM

**Q.** And the TGI (SK-OV-3 ovarian)?
**A.** 18.1 µM

**Q.** What about the GI50 (RXF 393 renal) of the same compound?
**A.** 1.72 µM

**Q.** What about the TGI (RXF 393 renal) of the same compound?
**A.** 6.47 µM

**Q.** And the GI50 (CCRF-CEM leukemia)?
**A.** 3.24 µM

**Q.** And the TGI (CCRF-CEM leukemia)?
**A.** > 100 µM

**Q.** What about the GI50 (HCC-2998 colon) of the same compound?
**A.** 3.94 µM

**Q.** What about the TGI (HCC-2998 colon) of the same compound?
**A.** > 100 µM

**Q.** And the GI50 (HL-60(TB) leukemia)?
**A.** 3.51 µM

**Q.** What about the TGI (HL-60(TB) leukemia) of the same compound?
**A.** > 100 µM

**Q.** And the GI50 (TK-10 renal)?
**A.** 8.31 µM

**Q.** What about the TGI (TK-10 renal) of the same compound?
**A.** > 100 µM

**Q.** And the GI50 (U251 CNS)?
**A.** 3.81 µM

**Q.** And the TGI (U251 CNS)?
**A.** > 100 µM

**Q.** And the GI50 (HCT-15 colon)?
**A.** 1.83 µM

**Q.** And the TGI (HCT-15 colon)?
**A.** > 100 µM

**Q.** What about the GI50 (OVCAR-8 ovarian) of the same compound?
**A.** 4.63 µM

**Q.** And the TGI (OVCAR-8 ovarian)?
**A.** > 100 µM

**Q.** Which TGI (MDA-MB-435) does the source give for Clc1ccc2c(NC3CCC(N4CCCCC4)CC3)ccnc2c1 (stereo not given) here?
**A.** 28.5 µM

**Q.** What about the TGI (SK-OV-3 ovarian) of the same compound?
**A.** > 100 µM

**Q.** And the TGI (RXF 393 renal)?
**A.** 43.7 µM

**Q.** What about the TGI (CCRF-CEM leukemia) of the same compound?
**A.** > 100 µM

**Q.** And the TGI (HCC-2998 colon)?
**A.** 27.4 µM

**Q.** What about the TGI (HL-60(TB) leukemia) of the same compound?
**A.** 43.5 µM

**Q.** What about the TGI (TK-10 renal) of the same compound?
**A.** 48.8 µM

**Q.** What about the TGI (U251 CNS) of the same compound?
**A.** 57.1 µM

**Q.** And the TGI (HCT-15 colon)?
**A.** > 100 µM

**Q.** What about the TGI (OVCAR-8 ovarian) of the same compound?
**A.** > 100 µM

**Q.** For CC1Cc2c(Cl)ncnc2N(C)c2ccccc21 (stereo not given), which GI50 (MDA-MB-435) is on record?
**A.** 3.24 µM

**Q.** And the TGI (MDA-MB-435)?
**A.** 16.7 µM

**Q.** And the GI50 (SK-OV-3 ovarian)?
**A.** 2.37 µM

**Q.** What about the TGI (SK-OV-3 ovarian) of the same compound?
**A.** 12.6 µM

**Q.** What about the GI50 (RXF 393 renal) of the same compound?
**A.** 2.57 µM

**Q.** What about the TGI (RXF 393 renal) of the same compound?
**A.** 6.05 µM

**Q.** And the GI50 (CCRF-CEM leukemia)?
**A.** 4.53 µM

**Q.** And the TGI (CCRF-CEM leukemia)?
**A.** > 100 µM

**Q.** What about the GI50 (HCC-2998 colon) of the same compound?
**A.** 3.01 µM

**Q.** And the TGI (HCC-2998 colon)?
**A.** 10.6 µM

**Q.** What about the GI50 (HL-60(TB) leukemia) of the same compound?
**A.** 3.39 µM

**Q.** What about the TGI (HL-60(TB) leukemia) of the same compound?
**A.** 15 µM

**Q.** And the GI50 (TK-10 renal)?
**A.** 2.57 µM

**Q.** And the TGI (TK-10 renal)?
**A.** 8.87 µM

**Q.** And the GI50 (U251 CNS)?
**A.** 3.92 µM

**Q.** And the TGI (U251 CNS)?
**A.** 37.9 µM

**Q.** What about the GI50 (HCT-15 colon) of the same compound?
**A.** 3 µM

**Q.** And the TGI (HCT-15 colon)?
**A.** 11.3 µM

**Q.** And the GI50 (OVCAR-8 ovarian)?
**A.** 3.42 µM

**Q.** And the TGI (OVCAR-8 ovarian)?
**A.** 27.3 µM

Source: PubChem BioAssay (NCI)
